Assay results: ChEMBL document CHEMBL1128045, “Antifungal lipopeptides: Structure-activity relationships of 3-hydroxyglutamine-modified pneumocandin B0 derivatives” (Bioorg Med Chem Lett, 1995)
Values after ≈ are worked out from the molar mass of the structure shown. Numbered stars: 1 amine (or outer) side, 2 acyl side, 3 side chain; on linkers, the order of the positions; unused ones are H or OH. Bridge positions count the residues as written; N and C are the ends. Square brackets hold non-standard residues; d marks the D form. Peptide text beside a SMILES is read from it. * marks the point of attachment. Orn(4R-OH) = O=C([C@H](C[C@@H](O)CN[*:3])N[*:1])[*:2]; hTyr(3R-OH) = N[C@H](C(=O)O)[C@H](O)Cc1ccc(O)cc1; X2 = O=C(O)C[C@@H](O)[C@H](N[*:1])C(=O)[*:2]; Gln(3R-OH) = NC(=O)C[C@@H](O)[C@H](N)C(=O)O; Pro(3S-OH) = O=C(O)[C@H]1NCC[C@@H]1O; Hyp = O=C(O)[C@@H]1C[C@@H](O)CN1; X1 = CCC(C)CC(C)CCCCCCCCC(=O)*

Tests used:
Beta-1,3-glucan synthase = Beta-1,3-glucan synthase (Candida albicans, UniProt O13428); experiment: Tested for inhibition of Beta-1,3-glucan synthase using a crude membrane of Candida albicans (MY 1208).
Beta-1,3-glucan synthase, sequence (O13428 whole entry): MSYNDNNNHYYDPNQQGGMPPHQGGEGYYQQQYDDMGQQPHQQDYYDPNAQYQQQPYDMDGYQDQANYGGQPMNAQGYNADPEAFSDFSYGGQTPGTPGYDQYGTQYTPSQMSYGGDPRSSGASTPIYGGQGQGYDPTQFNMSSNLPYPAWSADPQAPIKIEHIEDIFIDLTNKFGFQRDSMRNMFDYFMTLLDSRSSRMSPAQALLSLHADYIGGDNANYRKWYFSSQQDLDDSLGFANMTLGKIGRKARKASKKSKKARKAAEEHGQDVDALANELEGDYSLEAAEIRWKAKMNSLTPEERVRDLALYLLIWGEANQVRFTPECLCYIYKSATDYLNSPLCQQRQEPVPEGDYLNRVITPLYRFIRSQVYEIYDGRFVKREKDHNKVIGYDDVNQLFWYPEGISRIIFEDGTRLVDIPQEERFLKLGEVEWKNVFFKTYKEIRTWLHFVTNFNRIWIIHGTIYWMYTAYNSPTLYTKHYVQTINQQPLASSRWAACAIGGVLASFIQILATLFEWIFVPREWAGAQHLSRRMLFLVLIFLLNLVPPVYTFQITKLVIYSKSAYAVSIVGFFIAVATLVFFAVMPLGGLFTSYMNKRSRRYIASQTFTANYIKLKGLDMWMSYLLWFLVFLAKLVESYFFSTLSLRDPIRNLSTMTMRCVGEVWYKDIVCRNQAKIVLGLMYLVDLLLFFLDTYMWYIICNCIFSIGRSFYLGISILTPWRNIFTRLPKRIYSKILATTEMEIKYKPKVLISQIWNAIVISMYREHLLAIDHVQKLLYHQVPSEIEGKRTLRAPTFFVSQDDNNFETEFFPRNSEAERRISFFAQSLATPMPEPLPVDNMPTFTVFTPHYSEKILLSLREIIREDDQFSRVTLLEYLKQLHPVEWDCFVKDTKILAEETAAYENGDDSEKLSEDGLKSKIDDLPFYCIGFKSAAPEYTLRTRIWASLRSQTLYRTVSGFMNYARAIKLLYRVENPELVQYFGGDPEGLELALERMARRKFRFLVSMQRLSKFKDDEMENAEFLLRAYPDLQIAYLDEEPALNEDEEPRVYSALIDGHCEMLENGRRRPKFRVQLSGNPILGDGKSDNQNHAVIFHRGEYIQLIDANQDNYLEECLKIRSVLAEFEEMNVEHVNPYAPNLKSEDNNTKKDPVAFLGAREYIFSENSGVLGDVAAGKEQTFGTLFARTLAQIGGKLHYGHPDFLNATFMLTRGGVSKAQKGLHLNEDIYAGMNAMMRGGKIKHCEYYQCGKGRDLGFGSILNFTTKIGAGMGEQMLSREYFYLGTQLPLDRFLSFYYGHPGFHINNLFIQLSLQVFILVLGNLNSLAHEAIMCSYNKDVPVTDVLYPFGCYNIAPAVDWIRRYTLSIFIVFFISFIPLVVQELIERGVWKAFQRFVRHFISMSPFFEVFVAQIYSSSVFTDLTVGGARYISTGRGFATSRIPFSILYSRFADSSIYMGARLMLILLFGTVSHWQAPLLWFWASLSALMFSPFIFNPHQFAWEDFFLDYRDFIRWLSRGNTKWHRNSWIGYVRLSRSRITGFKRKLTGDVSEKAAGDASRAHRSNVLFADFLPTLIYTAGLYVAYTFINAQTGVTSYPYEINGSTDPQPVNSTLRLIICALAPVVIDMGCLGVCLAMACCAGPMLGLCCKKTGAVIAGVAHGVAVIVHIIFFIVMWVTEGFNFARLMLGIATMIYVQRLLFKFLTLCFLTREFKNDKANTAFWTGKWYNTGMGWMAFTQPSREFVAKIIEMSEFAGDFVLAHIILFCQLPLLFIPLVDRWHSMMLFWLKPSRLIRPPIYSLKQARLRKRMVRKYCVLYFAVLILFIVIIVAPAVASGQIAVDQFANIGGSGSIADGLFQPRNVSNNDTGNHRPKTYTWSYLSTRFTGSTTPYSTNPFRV

[1] = In vivo anti-Candida activity was determined in a mouse model of disseminated candidiasis (TOKA).; assay type: functional
Candida parapsilosis = experiment: In vitro Fungicidal activity (MFC) against Candida parapsilosis (MY 1010).; assay type: functional; conditions: Lodderomyces parapsilosis
Candida albicans = experiment: In vitro Fungicidal activity (MFC) against Candida albicans (MY 1055).; assay type: functional

Compound	IC50 (Beta-1,3-glucan synthase)	ED99.9 [1]	MFC (Candida parapsilosis)	MFC (Candida albicans)
CCC(C)CC(C)CCCCCCCCC(=O)N[C@H]1C[C@@H](O)CNC(=O)[C@@H]2[C@@H](O)CCN2C(=O)[C@H]([C@H](O)CC(=O)O)NC(=O)[C@H]([C@H](O)Cc2ccc(O)cc2)NC(=O)[C@@H]2C[C@@H](O)CN2C(=O)[C@H]([C@@H](C)O)NC1=O (stereo partly drawn) (X1-[Orn(4R-OH)]T[Hyp][hTyr(3R-OH)][X2][Pro(3S-OH)]; lactam 1-C)	400 nM	>6 mg/kg	8 µg/mL (≈ 7.74 µM)	0.25 µg/mL (≈ 0.242 µM)
CCC(C)CC(C)CCCCCCCCC(=O)N[C@H]1C[C@@H](O)CNC(=O)[C@@H]2[C@@H](O)CCN2C(=O)[C@H]([C@H](O)CC(N)=O)NC(=O)[C@H]([C@H](O)Cc2ccc(O)cc2)NC(=O)[C@@H]2C[C@@H](O)CN2C(=O)[C@H]([C@@H](C)O)NC1=O (stereo partly drawn) (X1-[Orn(4R-OH)]T[Hyp][hTyr(3R-OH)][Gln(3R-OH)][Pro(3S-OH)]; lactam 1-C)	70 nM	>6 mg/kg	2 µg/mL (≈ 1.94 µM)	0.25 µg/mL (≈ 0.242 µM)
